# From patent publication US10533018B2, “Antimicrobial prochelators to target drug-resistant bacteria and methods of making and using the same” (Duke University, priority 2015, dated 2020)
# Where two headings read alike, the source gives them in different places.
# How the values were obtained:
# [1] = system: Type III β-lactamase from Enterobacter cloacae; test: LC-MS conversion of prochelator by β-lactamase; format: biochemical
# Protocol: (§1) A commercially available β-lactamase (type III from Enterobacter cloacae, Sigma Aldrich) was used to verify the specificity of compound DB4-51 activation. Aqueous samples of the prochelator with and without β-lactamase were incubated at 25° C. and LC-MS was performed periodically to monitor the conversion. Percent conversion was calculated based upon the area under the LC-MS peak that corresponds to the mass of DB4-51.
# LC-MS performed on samples containing 100 μM DB4-51, 10 μM Rofecoxib (as internal standard), and 0.5 units/mL β-lactamase in PBS. Samples were incubated at room temperature and analyzed via LC-MS at time 0. The mass spectrum corresponding to the chromatographic peak eluting at 14 min matches the expected m/z value for […]. After incubation, a new peak appears at 7 mins with corresponding m/z values consistent with expected masses of PT disulfide and the 2:1 PT complex with iron. The internal standard was Rofecoxib which elutes at 16 min. The concentrations of DB4-51, PT, and internal standard were calculated based on prepared calibration curves of the integrated area under the UV peak of each component.
# (§2) The reaction products of the prochelator DB4-162 were analyzed by LC-MS. A sample of 100 μM DB4-162 and 10 μM Rofecoxib (internal standard) in PBS was divided into two LC-MS vials and to one was added 0.5 units/mL β-lactamase. After incubating at room temperature, the samples were run on the LC-MS. Integrating the area under the peak of the UV-trace gives a measure of the concentration of that species. By serial dilution, a calibration curve was constructed in order to quantify the concentration of DB4-162 present in solution. The mass spectrum confirms that the prochelator, with a molecular weight of 477.1 g/mol, elutes at 14.5 minutes (FIG. 10).
# [2] = Stability in aqueous media / PBS (UV-Vis, LC-MS); format: physicochemical
# Protocol: as §1
# The results from the growth inhibition assays support our hypothesis that β-lactamase-producing bacteria activate DB4-51 to release PT as the active agent. […] The UV-Vis absorbance spectra of DB4-51 and PT in PBS buffer are clearly distinct, with DB4-51 showing a shoulder at 264 nm and a broad absorption peak centered at 315 nm.
# In order to monitor the stability of DB4-162, the absorbance spectrum was recorded in PBS. The sample was incubated at 37° C. and the absorbance spectrum was recorded periodically. […] Additionally, the concentration of the prochelator in solution was monitored by LC-MS. A calibration curve was prepared after a serial dilution of DB4-162 was analyzed on the instrument and the area under the broad absorbance band at 260-300 nm that correlates with the prochelator was integrated. This curve was then used to calculate the concentration of DB4-162 present in solution after incubating in PBS at 37° C. The sample was analyzed by LC-MS after 0, 24, and 72 hours. After incubating in PBS for 24 hours more than 85% of the original signal was still observed by LC-MS. However, after 72 hours, it was calculated that approximately 60% of DB4-162 was still present in solution. Given the lack of degradation products in the mass spectrum and the absence of any new absorbance peaks it is possible that aggregation of the prochelator over time is the cause of the observed loss of signal. Together, the UV-Vis and LC-MS data support the overall stability of DB4-162 in aqueous conditions. By comparison, the half-life of most β-lactam antibiotics in vivo is a few hours.[44, 45]
# as §2
# 7 bacterial strains = test: Broth microdilution, summary across strains tested; format: cell-based
# Protocol: Cultures were incubated on LB (Lennox, Sigma) agar at 37° C. in ambient atmospheric composition. Before beginning an experiment, a single bacterial colony grown on LB agar was resuspended in 2 mL LB broth and incubated overnight to form a turbid cell suspension. The overnight culture was diluted 1:100 in LB and used immediately as the working culture. To assess the antibacterial activity of compounds, the working bacterial culture was aliquoted in a clear, flat-bottomed, 96-well polystyrene plate (Costar) and the compound of interest was added in 2-fold serial dilution from 500 to 1 μM. Plates were covered with a breathable sealing film (Aeroseal, Genesee Scientific) and incubated at 37° C. in ambient atmospheric composition with shaking at 200 rpm. Optical density at 600 nm was recorded after 4 h and 20 h for each well using a standard OD600 protocol with LB serving as the blank. The resulting dose-response curves were fit to a nonlinear regression in GraphPad Prism Version 6 to calculate the IC50 of DB4-51 in each strain.
# +Bla K-12 E. coli = format: cell-based, Escherichia coli; details: 1 h, ICP-MS; for increase in cell-associated copper over the CuCl2 control: 10 μM compound + 10 μM supplemental CuCl2; for changes in cell-associated copper, iron, or zinc vs untreated control: 2.5-10 μM compound alone
# Protocol: PT is recognized as an ionophore that shuttles metals across cell membranes and thereby disrupts cellular metal homeostasis. […] To test this hypothesis, inductively-coupled plasma mass spectrometry (ICP-MS) was used to measure the concentration of cell-associated copper, iron, and zinc for +Bla K-12 E. coli grown under a variety of conditions. Untreated E. coli grown in LB media were compared to those incubated for one hour in LB containing 0, 2.5, 5, or 10 μM DB4-51 or PT with and without 10 μM supplemental CuCl2. The concentrations of cell-associated metals in +Bla E. coli grown in these conditions are reported as a ratio against bacterial growth as measured by the OD600 reading at the time of sampling.
# FIG. 6: Cellular metal concentrations of +Bla K-12 E. coli. Cultures of +Bla K-12 E. coli were incubated for 1 h in LB media, LB containing no treatment, 10 μM added CuCl2, and DB4-51 (top) or PT (bottom) at indicated concentrations in the absence or presence of 10 μM CuCl2. Metal contents of cell pellets were analysed via ICP-MS and reported as a function of OD600.
# [3] = system: HepG2 human liver epithelial cells
# Protocol: CellTox Green LDH Cytotoxicity Detection Kit was purchased from Promega. Cell lines were purchased from the ATCC. All work was performed in a laminar-flow hood using sterile techniques. […] After splitting and counting, black, clear bottom 96-well plates were seeded at a density of 15,000 cells/well and incubated overnight at 37° C. in a fully humidified atmosphere containing 5% CO2. […] Untreated cells served as the negative control while wells containing untreated cells incubated with 1% Triton X-100 served as the positive control.
# Using a cytotoxicity assay, the viability of mammalian cells was monitored as a function of their membrane integrity.
# [4] = Zinpyr-1 fluorescence assay; format: physicochemical
# Protocol: Lanes three and four contain 100 μM DB4-51 and 0.5 units/ml β-lactamase respectively and confirm these molecules are innocent in the fluorescence of zinpyr-1. Lane five contains 100 μM DB4-51 and 0.5 units/ml β-lactamase.
structure (smiles),measurement,setting,value
"Cc1csc(=S)n1OCC1=C(C(=O)O)N2C(=O)[C@@H](NC(=O)Cc3ccccc3)[C@H]2SC1 [DB4-162, (6R,7R)-3-(((4-methyl-2-thioxothiazol-3(2H)-yl)oxy)methyl)-8-oxo-7-(2-phenylacetamido)-5-thia-1-azabicyclo[4.2.0]oct-2-ene-2-carboxylic acid]",reduction of prochelator peak,"[1]; 100 μM, 0.5 units/mL β-lactamase, PBS, 4 hours",more than 95%
same,stability without the enzyme (LC-MS),[2],appears stable
same,original signal still observed by LC-MS,"[2]; PBS, 37° C., 24 hours",more than 85%
same,prochelator still present in solution (LC-MS),"[2]; PBS, 37° C., 72 hours",approximately 60%
same,absorbance spectrum change,"[2]; PBS, 37° C., after 72 hours",only very small spectral changes
"[O-][n+]1ccccc1S [PT, 2-mercaptopyridine N-oxide]",IC50,"7 bacterial strains; 500 μM BCS, depending on strain, read-out: IC50 across strains under Cu limiting conditions",6 to 20 µM
same,IC50,"7 bacterial strains; LB broth, span over 7 strains, read-out: IC50 across all strains tested",2 to 11 µM
same,increase in cell-associated copper over the CuCl2 control,+Bla K-12 E. coli,30 fold
same,"changes in cell-associated copper, iron, or zinc vs untreated control",+Bla K-12 E. coli,no significant changes
same,cell death,"[3]; concentrations below 500 μM, 24 hour",≤ 50%
"O=C(Cc1ccccc1)N[C@@H]1C(=O)N2C(C(=O)O)=C(CSc3cccc[n+]3[O-])CS[C@H]12 [DB4-51, 2-((((6R,7R)-2-carboxy-8-oxo-7-(2-phenylacetamido)-5-thia-1-azabicyclo[4.2.0]oct-2-en-3-yl)methyl)thio)pyridine 1-oxide]",IC50 of DB4-51 relative to that of PT,7 bacterial strains; most ampicillin-resistant strains tested,2-5 fold
same,Percent conversion (LC-MS peak area),"[1]; 100 μM, 0.5 units/ml β-lactamase, pH 7.4 PBS, after 4 hours",~80%
same,decrease of chromatographic peak area of prochelator,[1]; after 4 hours in the presence of β-lactamase,more than 80%
same,PT released from the prochelator (area under PT peak),"[1]; with β-lactamase, PT difficult to quantify",50%
same,stability by LC-MS,"[2]; PBS, 72 hours at 37° C.",no signs of degradation
same,absorbance spectrum in PBS,"[2]; PBS, after 19 hours",remains unchanged
same,Percent conversion in the absence of the enzyme,"[2]; aqueous, 25° C., after 48 hours",≤ 5%
same,decrease of Zn-zinpyr-1 fluorescence,[4]; 100 μM + 0.5 units/ml β-lactamase,more than 50%
same,Zn-zinpyr-1 fluorescence on addition of compound,"[4]; 400 equivalents (100 μM), no β-lactamase",unaffected
same,increase in cell-associated copper over the CuCl2 control,+Bla K-12 E. coli,slight but statistically insignificant increase
same,"changes in cell-associated copper, iron, or zinc vs untreated control",+Bla K-12 E. coli,no significant changes
same,LD50,[3]; 24 h,> 500 µM
same,cell death,"[3]; at 500 μM, 24 h",more than 50%
same,cytotoxicity,"[3]; below 250 μM, 24 h",non-toxic
